pKi: −log10 of the molar value.
Biological target: T1, Glutamate racemase (Limosilactobacillus fermentum, UniProt Q03469)
T1 sequence (Q03469 whole entry): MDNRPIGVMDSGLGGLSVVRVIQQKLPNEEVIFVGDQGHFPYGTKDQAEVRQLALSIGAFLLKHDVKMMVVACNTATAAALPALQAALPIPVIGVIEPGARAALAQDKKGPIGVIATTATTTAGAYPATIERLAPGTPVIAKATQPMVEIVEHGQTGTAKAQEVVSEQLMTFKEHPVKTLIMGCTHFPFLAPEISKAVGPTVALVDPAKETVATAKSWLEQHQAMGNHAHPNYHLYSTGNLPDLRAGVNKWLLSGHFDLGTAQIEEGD
Assay: Binding affinity against Glutamate Racemase

pKi: 7.80
Structure (SMILES): N[C@H](C[C@H](Cc1ccc2ccccc2c1)C(=O)O)C(=O)O [2-Amino-4-naphthalen-2-ylmethyl-pentanedioic acid]

Reference: BindingDB's records for doi:10.1021/jm020901d (Eli Lilly, 2002)
